The results in this text go back to patent publication US9301923B2, “Lipids, lipid compositions, and methods of using them” (NOVARTIS AG, priority 2009, dated 2016).

Read-outs that look alike come from different tables or passages of the source.

A short description of data set [1]: Particle size and PDI by dynamic light scattering (Malvern Zetasizer). The data set is classed as physicochemical. On the procedure: Unless indicated otherwise, all sizes referred to herein are the average sizes (diameters) of the fully formed nanoparticle, as measured by dynamic light scattering on a Malvern Zetasizer. The nanoparticle sample is diluted in phosphate buffered saline (PBS) so that the count rate is approximately 200-400 kcts. The data is presented as a weighted average of the intensity measure.
The acronym PDI stands for polydispersity index. Unless indicated otherwise, all PDIs referred to herein are the PDI of the fully formed nanoparticle, as measured by dynamic light scattering on a Malvern Zetasizer. The nanoparticle sample is diluted in phosphate buffered saline (PBS) so that the count rate is approximately 200-400 kcts.

A further data set concerns Factor VII. As to the kind of experiment: Factor VII activity assay, in vivo liver delivery of FVII siRNA LNP. Also noted: species or system mouse. As to conditions: ~48 h. On the procedure: Female CD-1 mice are received from Charles River Labs and maintained on standard lab chow and water ad libitum. The animals weigh approximately 25 grams at time of dosing. Formulated siRNA is administered as a single dose at various dose levels intravenously via the lateral tail vein calculated on a (mg siRNAs/kg) basis according to individual animal weights (10 ml/kg injection volume).
Formulated siRNAs are made up of double stranded siRNA sequences specific to a target mRNA sequence, and are in the form of lipid nucleotid particles (LNPs) containing cationic lipids, stealth lipids and neutral lipids, as provided in the Examples below. The siRNA construct for use in targeting the liver is specific to Factor VII. […] FVII siRNA duplex sequence
Formulated Factor VII siRNA is administered as a single dose at various dose levels intravenously via the lateral tail vein calculated on a mg siRNAs/kg basis according to individual animal weights (10 ml/kg injection volume). Approximately 48 h after injection, the mice are euthanized by CO2 inhalation followed by exsanguinations through the vena cava. […] In some cases, small pieces (˜50 mg) of liver are collected and snap frozen in liquid nitrogen for follow up mRNA quantitation.
An assay standard curve is prepared using pooled plasma aliquots from the vehicle control animals.

Data set [2] can be described thus: pKa of the lipid by TNS fluorescence. The data set is classed as physicochemical. On the procedure:
Unless explicitly indicated otherwise, all pKas referred to herein are measured in water at standard temperature and pressure. Also, unless otherwise indicated, all references to pKa are references to pKa measured using the following technique.
2 mM solution of lipid in ethanol are prepared by weighing the lipid and then dissolving in ethanol.
This is done with all eight buffers.
Priority: Column priority • Carriage Speed: Normal • Auto read: Off
The normalized fluorescence intensity vs. pH chart is then plotted in the Microsoft Excel software. The eight points are connected with a smooth line.
The pKa determined using this method is precise to about 0.2 pKa units.

The mark [3] stands for this setting: lipid/DSPC/CHOL/AVANTI 880150P 50/28/18/4, N/P 3.43.
Setting [4] is: lipid/no neutral lipid/CHOL/AVANTI 880150P 50/0/46/4, N/P 3.43.
Where [5] appears, read: dose 3 mg/kg siRNA i.v., lipid/DSPC/CHOL/AVANTI 880150P 50/28/18/4, N/P 3.43.
Where [6] appears, read: dose 3 mg/kg siRNA i.v., lipid/no neutral lipid/CHOL/AVANTI 880150P 50/0/46/4, N/P 3.43.
[7] abbreviates: lipid/no neutral lipid/CHOL/GM-020 NOF 60/0/36/4, N/P 3.
Where [8] appears, read: dose 1 mg/kg siRNA i.v., lipid/no neutral lipid/CHOL/GM-020 NOF 60/0/36/4, N/P 3.

By pKa is commonly meant the pH at which an ionisable group is half protonated. The low end stands for a stronger acid or weaker base, the high end for a weaker acid or stronger base. With `CCCCC/C=C\C/C=C\CCCCCCCCOCC(CN(C)C)OCCOCCO[C@H]1CC[C@@]2(C)C(=CC[C@H]3[C@@H]4CC[C@H]([C@H](C)CCCC(C)C)[C@@]4(C)CC[C@@H]32)C1` (stereo partly drawn) [E0172, reference compound], the entries for the “Final size (nm)” value in data set [1] (setting [3]) and in data set [1] (setting [4]) were 170 nm and 129 nm, respectively. For the same compound, the PDI in data set [1] (setting [3]) was found to be 0.181; in data set [1] (setting [4]), 0.184. Also, the FVII inhib % in the data set with Factor VII (setting [5]) was 21%; with Factor VII (setting [6]), 40.8%. Further, the pKa in data set [2] was found to be 8.5; in data set [2] (pKa), 6.7.

On to `CCCCC/C=C\C/C=C\CCCCCCCCOCC(CN1CCCC1C)OCCOCCO[C@H]1CC[C@@]2(C)C(=CC[C@H]3[C@@H]4CC[C@H]([C@H](C)CCCC(C)C)[C@@]4(C)CC[C@@H]32)C1` (stereo partly drawn) [E0083], for which, in data set [1] (setting [7]), the “Final size (nm)” value stood at 113.4 nm and the PDI came out at 0.199. Also, the FVII inhib % in the data set on Factor VII (setting [8]) stood at 55.6%. In data set [2] (pKa), the pKa was found to be 6.79.

On to `CCCCC/C=C\C/C=C\CCCCCCCCOC[C@H](CN1CCCCC1)OCCOCCO[C@H]1CC[C@@]2(C)C(=CCC3C2CC[C@@]2(C)C3CC[C@@H]2[C@H](C)CCCC(C)C)C1` (stereo partly drawn) [E0043], for which the results for the “Final size (nm)” value in data set [1] (setting [3]) and in data set [1] (setting [4]) were 110 nm and 76 nm, respectively. For the same compound, the PDI in data set [1] (setting [3]) was 0.24; in data set [1] (setting [4]), 0.15. For the same compound, the FVII inhib % in the data set on Factor VII (setting [5]) was 95.7%; in the data set on Factor VII (setting [6]), −11.7%. The pKa in data set [2] (pKa) came out at 6.33.

For `CCCCC/C=C\C/C=C\CCCCCCCCOCC(CN1CCc2ccccc2C1)OCCOCCO[C@H]1CC[C@@]2(C)C(=CC[C@H]3[C@@H]4CC[C@H]([C@H](C)CCCC(C)C)[C@@]4(C)CC[C@@H]32)C1` (stereo partly drawn) [E0001], the “Final size (nm)” value in data set [1] (setting [3]) is 71 nm; in data set [1] (setting [4]), 77 nm. Also, the figures for the PDI in data set [1] (setting [3]) and in data set [1] (setting [4]) were 0.101 and 0.16, respectively. In addition, the values for the FVII inhib % with Factor VII (setting [5]) and with Factor VII (setting [6]) were 27.6% and 20.1%, respectively. In addition, the pKa in data set [2] (pKa) came to 4.84.

In the case of `CCCCC/C=C\C/C=C\CCCCCCCCOCC(CN1CCCC(C)C1)OCCOCCO[C@H]1CC[C@@]2(C)C(=CCC3C2CC[C@@]2(C)C3CC[C@@H]2[C@H](C)CCCC(C)C)C1` (stereo partly drawn) [E0023], the “Final size (nm)” value in data set [1] (setting [3]) turned out to be 95 nm; in data set [1] (setting [4]) it was 99 nm. The figures for the PDI in data set [1] (setting [3]) and in data set [1] (setting [4]) were 0.221 and 0.122, respectively. The values for the FVII inhib % in the data set on Factor VII (setting [5]) and with Factor VII (setting [6]) were 59.1% and 68%, respectively. Also, in data set [2] (pKa), the pKa came to 5.85.

With `CCCCC/C=C\C/C=C\CCCCCCCCOCC(CN1CC[C@H]2OC(C)(C)O[C@H]2C1)OCCOCCO[C@H]1CC[C@@]2(C)C(=CCC3C2CC[C@@]2(C)C3CC[C@@H]2[C@H](C)CCCC(C)C)C1` (stereo partly drawn) [E0009], the “Final size (nm)” value in data set [1] (setting [3]) is reported as 83 nm; in data set [1] (setting [4]), 82 nm. The PDI is 0.2 in data set [1] (setting [3]) and 0.16 in data set [1] (setting [4]). Also, the FVII inhib % is on record as 38.4% in the data set with Factor VII (setting [5]) and 6.9% in the data set with Factor VII (setting [6]). This compound also displayed a pKa in data set [2] (pKa) of 4.89.

On to `CCCCC/C=C\C/C=C\CCCCCCCCCCOCC(CN1CCCC1C)OCCO[C@H]1CC[C@@]2(C)C(=CC[C@H]3[C@@H]4CC[C@H]([C@H](C)CCCC(C)C)[C@@]4(C)CC[C@@H]32)C1` (stereo partly drawn) [E0070], for which, in data set [1] (setting [7]), the “Final size (nm)” value came out at 150.9 nm and the PDI is reported as 0.045. For the same compound, the FVII inhib % in the data set on Factor VII (setting [8]) came out at 50.3%. In data set [2] (pKa), this compound returned a pKa of 6.4.

As for `CCCCC/C=C\C/C=C\CCCCCCCCOCC(CN1Cc2ccccc2C1)OCCOCCO[C@H]1CC[C@@]2(C)C(=CCC3C2CC[C@@]2(C)C3CC[C@@H]2[C@H](C)CCCC(C)C)C1` (stereo partly drawn) [E0029], the “Final size (nm)” value in data set [1] (setting [3]) came to 137 nm; in data set [1] (setting [4]), 113 nm. Besides, the figures for the PDI in data set [1] (setting [3]) and in data set [1] (setting [4]) were 0.04 and 0.08, respectively. The FVII inhib % in the data set on Factor VII (setting [5]) is reported as 12.4%; in the data set on Factor VII (setting [6]) it was −19.1%. Moreover, in data set [2] (pKa), the pKa worked out at 4.95.
